Measured values from patent publication US11167133B2, “Intratumoral modulation therapy” (LONDON HEALTH SCIENCES CENTRE RESEARCH INC., priority 2015, dated 2021).

Legend:
[1] = system: primary patient GBM cells; experiment: Annexin V / propidium iodide flow cytometry of apoptotic and dead cells; format: cell-based, human; conditions: 72 h; for combined fraction of apoptotic (annexin+) and dead (annexin+ and PI+) GBM cells: mean±SD, cells from 3 patients
Source text: (§1) This study was approved by the Research Ethics Board at the University of Western Ontario (Approval #17290). GBM specimens were obtained at the time of operative resection and placed immediately into phosphate-buffered saline (PBS) with 0.5% fetal bovine serum (FBS; Life Technologies, Burlington, ON, Canada). The tissue was washed, digested and filtered through a 100-μm cell strainer. Samples were then centrifuged and resuspended in Dulbecco's modified Eagle's medium (DMEM; Wisent Bioproducts, St. Bruno, PQ, Canada) supplemented with 10% FBS, 1% non-essential amino acids and 1% penicillin/streptomycin (Life Technologies) before plating to a 35-mm dish for 30 min to allow blood cells to separate. The upper cell suspension was then transferred to two wells of a 24-well plate, freshly pre-coated with 10 μg/ml poly-L-lysine (Trevigen Inc., Gaithersburg, Md., USA) and incubated at 37° C. with 5% CO2. Cultures were passaged at approximately 80% confluence and split 1:2 using 0.25% trypsin with 0.53 mM ethylenediaminetetraacetic acid (EDTA; Wisent). The medium was changed twice per week. All assays were conducted using GBM cells from cultures at passages 4 through 12.
GBM cells (2×10^5 cells in 2 ml maintenance DMEM) were transferred to the 35 mm wells in standard 6-well plates and allowed to grow to ˜70% confluence before treatment. A clinical grade, platinum-based reference strip electrode (AD-Tech, Racine, Wis., USA) around the periphery and a stimulating electrode (Medtronic Ltd., Brampton, ON, Canada) in the centre of the well. The electrodes were connected to a waveform generator set to produce monophasic, square-wave pulses of 4 volts, with pulse width of 90 μsec and frequency of 130 Hz. This setting is in the range of that commonly used in clinical neuromodulation treatment for symptoms of movement disorders, such as Parkinson's disease (11). Control wells (i.e. sham-treated) were fitted with electrodes but no current was delivered. Treatment durations between 24-96 h were used to allow adequate time for antitumor effect while avoiding the need for medium change once IMT was initiated. Thus, all intact GBM cells, adherent and floating, contributed to the viability measures described below. GBM cells treated with chemotherapy were plated with DMEM containing temozolomide (50 μM; Sigma Aldrich) in 35 mm wells fitted with the IMT apparatus and received 72 h of concomitant IMT or sham conditions. The 50 μM temozolomide concentration reflects clinically relevant levels corresponding to the in vivo plasma concentration of 150 mg/m2 in the adjuvant phase of GBM treatment (24).
An Annexin V Apoptosis Detection Kit with propidium iodide (PI; BioLegend, San Diego, Calif., USA) was used for identification of apoptotic and dead cells, as per the manufacturer's instructions. Cell fractions were analyzed using a Becton Dickinson LSR II SORP flow cytometer running FACSDiva software (BD Biosciences, Mississauga, ON, Canada). Cells were first gated on forward scatter (FSC-) versus side scatter (SSC-) characteristics before excluding doublets using consecutive gating FSC-Area versus FSC-Width and SSC-Area versus SSC-Width plots. The populations of annexin V+/PI−, annexin V+/PI+, annexin V−/PI+ and annexin V−/PI− were then calculated with quadrant gates. Approximately 30,000 single cells were acquired per sample at a maximum event rate of 5,000 events per second. Data were analyzed using FlowJo v 9.6.3 (TreeStar, Inc., Ashland, Oreg., USA).

[2] = system: primary patient GBM cells; experiment: MTT cell viability assay; format: cell-based, human; conditions: 72 h, mean±SD, 3 patients
Source text: as §1, with “Cultures were passaged at approximately 80% confluence and split 1:2 using 0.25% trypsin with 0.53 mM ethylenediaminetetraacetic acid (EDTA; Wisent). The medium was changed twice per week. All assays were conducted using GBM cells from cultures at passages 4 through 12.” left out
Primary human patient GBM cells (1×10^5 cells in 2 ml maintenance DMEM) were seeded into one 35 mm well equipped with the IMT system and allowed to grow to ˜70% confluence. […] In the IMT-siRNA conditions, IMT was initiated at the time of transfection and maintained for the entire 48 h, after which the extent of target knockdown and GBM cell viability were assessed.
Cell viability was evaluated using the 3-(4,5-dimethylthiazol-2-yl)-2,5-diphenyltetrazolium (MTT) spectral analysis (Sigma Aldrich). […]

[3] = temozolomide 50 μM combined with IMT (4 V, 130 Hz)
[4] = temozolomide 50 μM, with concomitant IMT (4 V, 130 Hz), representative scatterplot
[5] = temozolomide 50 μM, without IMT, representative scatterplot

## Cn1nnc2c(C(N)=O)ncn2c1=O [temozolomide]
[1]; single-modality temozolomide 50 μM
  combined fraction of apoptotic (annexin+) and dead (annexin+ and PI+) GBM cells: 16.9±7.4%
[1]; [3]
  combined fraction of apoptotic (annexin+) and dead (annexin+ and PI+) GBM cells: 52.4±21.8%
[1]; [4]
  dead cells (annexin and PI-positive), FIG. 4 scatterplot: 16%
  live cells, FIG. 4 scatterplot: 25.2%
[1]; [5]
  apoptotic cells (annexin-positive), FIG. 4 scatterplot: 14.1%
  dead cells (annexin and PI-positive), FIG. 4 scatterplot: 9.4%
  live cells, FIG. 4 scatterplot: 76.1%
[2]; Homo sapiens, temozolomide 50 μM alone, read-out: viability relative to untreated cells (MTT)
  viability at 50 µM: 69.7 ± 11.8%
[2]; [3]
  viability relative to untreated cells (MTT): 29.1±3.2%
